According to US11590076B2, “Cryogel scaffold capable of controlling degree of degradation and soft bio-integrated device in which drug modulating immunosuppressive action in solid microenvironment is loaded in same scaffold” (Research & Business Foundation Sungkyunkwan University, priority 2017, dated 2023):

Experiments:
[1] = test system: myeloid-derived-suppressor cells (MDSCs); test: Gemcitabine-induced apoptosis of MDSCs (FITC Annexin V); format: cell-based, mouse; details: various gemcitabine concentrations, FIG. 31B
Method: Gemcitabine induces apoptosis of myeloid-derived-suppressor cells (MDSCs) in vitro. The spleen was extracted from a mouse harboring 4T1 tumors for 28 days, the extracted spleen was ground, and RBCs were removed therefrom using an RBC lysis buffer. The RBC-removed spleen cells were re-dispersed in a MACS buffer (PBS, 0.5% BSA, […]), MDSCs were isolated using an MDSC isolation kit (Miltenyi Biotec). The isolated myeloid-derived-suppressor cells were seeded in a 6-well plate at a density of 2×10^6 cells/well, and incubated with various concentrations of gemcitabine. The gemcitabine-induced apoptosis of the MDSCs was assessed according to the protocol of an FITC Annexin V Apoptosis kit (BD Biosciences).

[2] = In vitro drug release behavior of soft bio-integrated device; format: physicochemical; details: within one week, PBS (pH 7.4), 37° C., FIG. 31A
Method: A scaffold in which gemcitabine, rhodamine-attached poly(I:C)/nanogel, and a 4T1 cell lysate were loaded was added to 1 mL of PBS (pH 7.4), and stored at 37° C. and 90 rpm. Every selected time interval, the original culture medium was obtained and exchanged with a fresh medium. An amount of gemcitabine released from the scaffold was measured using absorbance (275 nm, UV-1800; Shimadzu, Kyoto, Japan), the rhodamine-attached poly(I:C) was measured according to the protocol of the 5'[…] Nucleic Acid Labeling System (Vector Laboratories), and the 4T1 cell lysate was measured using the BCA assay method (Pierce Biotechnology). Specifically, a fluorescence spectrometer (PerkinElmer) was used to detect and analyze fluorescence at 552 nm (excitation) and 575 nm (emission) from the poly(I:C)/nanogel attached to rhodamine released from the scaffold.

[3] = test system: 4T1 breast cancer cell line; test: Gemcitabine-induced apoptosis of 4T1 breast cancer cells (FITC Annexin V); format: cell-based; details: change in gemcitabine concentration, FIG. 31C
Method: In addition, the activation of BMDCs using a gemcitabine-treated 4T1 breast cancer cell line was confirmed. […] The gemcitabine-induced apoptosis of the 4T1 breast cancer cells was assessed according to the protocol of the FITC Annexin V Apoptosis kit (BD Biosciences). After 24 hours, a supernatant was collected, and then incubated with BMDCs. A BMDC activation marker was analyzed using an Accuri™ flow cytometer. Antibodies used herein were FITC-anti-CD11c and APC-anti-CD80 (BD Pharmingen).

4T1 tumor = test: In vivo anticancer effect after tumor resection and implantation of soft bio-integrated device; parameters: species or system BALB/c mice; details: day 7 and day 14, FIG. 38A
Method: When 1×10^6 4T1 cells were injected and the size of a growing tumor became 300 mm^3 on day 14 after injection, the tumor was partially resected. A mouse was anesthetized using 2,2,2-tribromoethanol. The surgical site was sterilized with 70% ethanol, and 90% of the tumor was resected so that 10% of the tumor remained. A scaffold was implanted near the remaining part of the tumor.
On day 7 and day 14 after tumor removal and implantation of a soft bio-integrated device, a mouse was sacrificed, and a tumor, the spleen and a lymph node of the sacrificed mouse were isolated to measure weights thereof.
The tumor and lymph node were cut into small pieces, dispersed in DMEM containing collagenase D, stored for 1 hour at 37° C. and 90 rpm, and then filtered through a 70-μm strainer. The spleen was physically disrupted, and then RBCs were removed using an RBC lysis buffer. The tumor and spleen dispersed as single cells by the above-described method were analyzed using APC-anti-CD11b and PE-anti-Gr1 antibodies to confirm myeloid-derived-suppressor cells and using APC-anti-CD3, PE-anti-CD4 and FITC-CD8 antibodies to confirm T cells. All antibodies were purchased from BD Pharmingen.
Moreover, to confirm tumor metastasis, on day 14 after the tumor removal, the mouse was sacrificed to confirm metastasis. […]

BMDCs = test: Activation of BMDCs using gemcitabine-treated 4T1 breast cancer cell line; format: cell-based, mouse; details: gemcitabine-treated breast cancer cell line versus control, FIG. 31D
Method: In addition, the activation of BMDCs using a gemcitabine-treated 4T1 breast cancer cell line was confirmed. The 4T1 cells were cultured with 1 μg/mL gemcitabine in a 6-well plate at a density of 2×10^6 cells/well. The gemcitabine-induced apoptosis of the 4T1 breast cancer cells was assessed according to the protocol of the FITC Annexin V Apoptosis kit (BD Biosciences). After 24 hours, a supernatant was collected, and then incubated with BMDCs. A BMDC activation marker was analyzed using an Accuri™ flow cytometer. Antibodies used herein were FITC-anti-CD11c and APC-anti-CD80 (BD Pharmingen).

SMILES: Nc1ccn([C@@H]2O[C@H](CO)[C@@H](O)C2(F)F)c(=O)n1 [gemcitabine]
- dead cell percentage of MDSCs [1]: increased as the gemcitabine concentration increased
- accumulation amount of gemcitabine released from the scaffold [2]: approximately 90%
- dead cell percentage in breast cancer cell line (4T1) [3]: increased as the gemcitabine concentration increased
- MDSC proportion in the tumor and the spleen (4T1 tumor): reduced
- cell maturity of dendritic cells (BMDCs): increased
